Patent US5304113A, “Method of eradicating infectious biological contaminants” (The MCW Research Foundation, Inc., priority 1990, dated 1994)
Entries after “also recorded” stand apart in the source; their conditions may differ.

Tests used:
[1] = illumination time reduction; settings: equimolar concentrations
From the text: An analog of MC 540 which we have labeled MC 540A (see structural formula below) reduces illumination times about 6-fold when used in equimolar concentrations. [drawing 3]
Merocyanine-mediated photolysis of tumor cells, viruses and protozoa appear to be primarily mediated by singlet oxygen. An additional 2-fold reduction in illumination time can therefore be achieved by performing the photosensitization step in the presence of deuterium oxide (D2 O).

[2] = system: normal pluripotent hematopoietic stem cells; assay: sparing of normal pluripotent hematopoietic stem cells (rescue of lethally irradiated syngeneic hosts); type: in vivo, mouse; settings: photosensitization treatment
Description: (§1) When cultured F4-6 erythroleukemia cells, spleen or marrow cells from diseased animals, cell-free extracts of cultured cells, spleen cells, or marrow cells, or cell-free supernatants of F-6 cultures were injected into healthy B6D2F1 mice, the spleen weights increased from 70 mg to about 2 g within two weeks. The animals became polycythemic and, eventually, died. […] Normal pluripotent hematopoietic stem cells (as determined by the ability of photosensitized marrow cells to rescue lethally irradiated syngeneic hosts) were spared by the photosensitization treatment.

[3] = system: P. berghei berghei; assay: survival of mice injected with treated P. berghei-infected blood; type: in vivo
Description: (§2) Using the rodent malaria species, P. yoelii YM, and P. berghei berghei as model systems, the survival of mice i.v. injected with MC 540-treated and non-treated malarious blood was monitored in vivo. […] All mice receiving untreated malarious blood died rapidly. In a subsequent experiment, serial dilutions of treated (30 minutes of dye/light) or control malarious blood (30% parasitemia) were injected into recipient mice. One hundred percent of the mice receiving 10^4 treated cells survived compared to 0% of the corresponding control group. […] It is conceivable that MC 540 treatment of infected blood enhanced the immune response of the recipient mice.
In two experiments, all mice receiving P. berghei-infected blood (30% parasitemia), treated for 15-45 minutes with light and MC 540, died as did their control counterparts. However, 10% of the group receiving infected blood treated for 60 minutes with light and dye survived for the duration of the experiment (90 days).

[4] = system: protozoan-infected red blood cells; assay: killing of protozoan-infected red blood cells; type: cell-based; settings: simultaneous exposure to MC 540 and visible light
From the text: (§3) The simultaneous exposure to MC 540 and visible light also appears to kill protozoan-infected red blood cells very rapidly, but normal pluripotent hematopoietic stem cells and mature blood cells very slowly. This differential sensitivity to MC 540-mediated photolysis may be useful in purging blood and red blood cells of cell-free protozoa and protozoan-infected cells thus making the blood supply safer for use.

[5] = system: HTLV-I infected cells; assay: inactivation of HTLV-I infected cells; type: cell-based; settings: MC 540-mediated photosensitization
[6] = system: mature blood cells; assay: toxicity of photosensitization to mature blood cells; type: cell-based, mouse; settings: photosensitization treatment
From the text: 4) The same treatment protocol was much less toxic to mature blood cells and normal pluripotent hematopoietic stem cells in the mouse.
as §3

[7] = Acute systemic toxicity in mice (intravenous); type: in vivo, mouse (BAF1)
Description: The acute systemic toxicity of MC 540 was determined by injecting groups of 10 BAF1 mice intravenously with graded doses of MC 540. Survival data were plotted on a log probit scale and fitted with a least square regression line to determine LD10 and LD50 (Table 2).

[8] = system: Friend virus; assay: Friend virus disease in mice injected with photosensitized preparations; type: in vivo, B6D2F1 mice
Description: as §1

[9] = system: P. yoelii YM; assay: survival of mice injected with treated P. yoelii-infected blood; type: in vivo
Description: as §2

[10] = system: Friend erythroleukemia virus complex; assay: Friend virus titer / inactivation by MC 540-mediated photosensitization; type: cell-based
Description: The ability of MC 540 to react with enveloped (i.e. lipid-containing) viruses was tested with the Friend erythroleukemia virus complex, the human T cell leukemia virus, HTLV-I and Herpes simplex 1. Friend virus was obtained from cell-free supernatants of cultured erythroleukemia cells or as a cell-free extract from infected animals. Simultaneous exposure to MC 540 (15 ug/ml) and light (40 J/cm^2) reduced the virus titer by ≥4 logs regardless of the origin of the virus preparation.

[11] = system: herpes simplex virus type 1 (HSV-1); assay: limiting dilution plaque forming assay on Vero cells (Herpes simplex 1 inactivation); type: cell-based, human
From the text: (§4) The amount of virus that could be sedimented by centrifugation was reduced 5-fold after treatment with MC 540 and light. The remaining 80% of the virus were probably lysed. The small fraction that was sedimented was visibly stained by MC 540. It is conceivable that the sedimented virus fraction, although not lysed, had sustained enough photodynamic damages to make it noninfectious. For example, when the virus is Herpes simplex 1 the order of magnitude reduction is as high as 45 times.
(§5) Experiments with human herpes simplex virus type 1 (HSV-1), and human T-cell leukemia virus type I (HTLV-I) produced similar results. […] A limiting dilution plaque forming assay on Vero cells indicated a ≥5 log reduction (limit of detection) of the virus titer after only 10 min. of illumination. The standard illumination protocol calls for 90 min. of illumination. It is thus conceivable that the titer can be reduced by ≥45 log. Infectivity assays for HTLV-I have, unfortunately, not yet been developed. We therefore used reverse transcriptase activity as an indicator of virus destruction. Photosensitized and untreated aliquots of the same virus suspension were pelleted on a sucrose cushion. The pellet of the treated aliquot was about 5 times smaller and visibly red. Its reverse transcriptase content was reduced by more than 80% (Table 1). The balance of the enzyme activity was recovered in the supernatant. More than 80% of the original virus mass was apparently damaged so extensively (virtually "dissolved") that it was no longer pelletable by a two hour spin at 100,000×g. If the photosensitization of enveloped viruses bears any resemblance to the photosensitization of cells, it is reasonable to speculate that the pelletable material was also photodamaged and perhaps no longer infective.

[12] = system: human T-cell leukemia virus type I (HTLV-I) reverse transcriptase; assay: HTLV-I inactivation: pelletable virus and reverse transcriptase activity; type: biochemical
From the text: as §4, §5

[13] = system: virus-infected spleen cells, bone marrow cells, and cultured Friend erythroleukemia cells; assay: inactivation of Friend virus-infected / transformed cells by photosensitization; type: cell-based
[14] = comparison dye; cited from earlier work
[15] = preparations photosensitized and exposed to light prior to injection
[16] = MC 540-mediated photosensitization

With `CCCCN1C(=O)C(=CC=CC=C2Oc3c(ccc4ccccc34)N2CCCS(=O)(=O)O)C(=O)N(CCCC)C1=S` [MC 540A] as the compound, how does the “reduction of illumination time versus MC 540” value [1] read?
Its value is “about 6 fold”.

For `CCCCN1C(=O)C(=CC=CC=C2Oc3ccccc3N2CCCS(=O)(=O)O)C(=O)N(CCCC)C1=S` [MC 540], which “effect on normal pluripotent hematopoietic stem cells (in words)” value [2] is on record?
The value was “very slowly”.

And the “outcome of mice receiving treated P. berghei-infected blood” value ([3]; 15-45 minutes light and MC 540, 30% parasitemia, two experiments)?
Its value is “died”.

And the “survival of mice receiving treated P. berghei-infected blood” value ([3]; 60 minutes light and dye, 90 days)?
Its value is 10%.

And the “killing of protozoan-infected red blood cells (in words)” value [4]?
Its value is “very rapidly”.

And the “inactivation of HTLV-I infected cells (in words)” value [5]?
Its value is “rapidly inactivated”.

What about the “effect on mature blood cells (in words)” value [6] of the same compound?
The value was “very slowly”.

What about the LD50 ([7]; in vivo, mouse, intravenous, log probit fit) of the same compound?
Its LD50 is 84 mg/kg.

What about the “LD10 (mouse)” value ([7]; intravenous, log probit fit) of the same compound?
The value was 55 mg/kg.

What about the “acute systemic toxicity (in words)” value ([7]; mouse, in vivo) of the same compound?
The value was “very low”.

And the “acute toxicity compared with fluorescent dyes used for angiography of the retina” value ([7]; mouse, in vivo, iv)?
The value was “not more toxic than the fluorescent dyes that are commonly used for the angiography of the retina”.

What about the selectivity ratio ([7]; mouse, in vivo, iv, read-out: LD10 relative to amount injected with mouse bone marrow graft) of the same compound?
Its selectivity ratio is greater than 100000.

And the “probable cause of death after high doses (necropsy)” value ([7]; mouse, intravenous, high doses)?
The value was “formation of large emboli of precipitated dye in major blood vessel”.

And the “amount injected with photosensitized marrow graft” value ([7]; mouse, for comparison with LD10)?
Its value is 0.0004 mg/kg.

What about the “inactivation of free and intracellular Friend virus and Friend virus-infected cells” value ([8]; MC 540-mediated photolysis) of the same compound?
Its value is “inactivates free Friend virus, intracellular Friend virus, and Friend virus-infected cells”.

What about the “effect of virus preparations exposed to dye or light alone” value ([8]; dye alone or light alone) of the same compound?
The value was “caused splenomegaly, polycythemia,and death”.

What about the hematocrits [8, 15] of the same compound?
Its hematocrits is “remained normal”.

And the spleen weights [8, 15]?
Its spleen weights is “remained normal”.

What about the survival [8, 15] of the same compound?
The survival was “the animals survived”.

What about the “survival of mice receiving 10^4 treated cells” value ([9]; 30 minutes dye/light, 30% parasitemia, control 0%) of the same compound?
Its value is “One hundred”.

And the “survival of recipient population (P. yoelii)” value ([9]; 60 minutes dye/light, 40%-70% parasitemia)?
Its value is 70%-100.

What about the “protection of recipient mice (P. yoelii)” value ([9]; 90 minutes dye and light, 40%-70% parasitemia) of the same compound?
Its value is “total protection”.

What about the “protection despite exceedingly high parasitemias (P. yoelii)” value ([9]; all stages of development) of the same compound?
The value was “protection by MC 540 treatment was still obtained”.

And the “protection of recipient mice (P. yoelii), shorter illumination” value ([9]; shorter than 60 minutes illumination)?
The value was “partial protection”.

And the “course of disease in surviving mice” value ([9]; some of the surviving mice, both treatments)?
The value was “initially showed severe symptoms of malaria (e.g. splenomegaly, anemia) but later recovered”.

What about the “inactivation of Friend virus suspensions (in words)” value [10, 16] of the same compound?
Its value is “rapidly inactivated”.

And the log reduction at 15 µg/mL ([10]; light or radiation study, read-out: virus titer reduction (Friend virus))?
The log reduction at 15 µg/mL was no less than 4.

And the “virus titer reduction (HSV-1)” value ([11]; 10 min. of illumination, limit of detection)?
The value was no less than 5 log.

What about the “virus titer reduction (HSV-1), conceivable for standard protocol” value ([11]; 90 min. of illumination, extrapolated) of the same compound?
Its value is no less than 45 log.

What about the “inactivation of Herpes simplex (in words)” value [11, 16] of the same compound?
The value was “rapidly inactivated; also recorded: extremely susceptible”.

What about the “HTLV-I, Reverse Transcriptase activity” value ([12]; MC 540, light 90 min) of the same compound?
Its value is 37,848 cpm.

What about the “HTLV-I, Reverse Transcriptase activity” value ([12]; MC 540, no light) of the same compound?
Its value is 208,548 cpm.

What about the “inactivation of HTLV-I (in words)” value [12, 16] of the same compound?
Its value is “rapidly inactivated; also recorded: susceptible to MC 540-mediated photosensitization”.

What about the “reduction of amount of virus sedimented by centrifugation (HTLV-I)” value ([12]; MC 540 and light) of the same compound?
Its value is 5 fold.

What about the “virus probably lysed (HTLV-I)” value ([12]; MC 540 and light) of the same compound?
Its value is 80%.

What about the “reduction of reverse transcriptase content of pellet (HTLV-I)” value ([12]; photosensitized vs untreated aliquot) of the same compound?
The value was “more than 80%”.

And the “pellet size reduction of treated aliquot (HTLV-I)” value ([12]; photosensitized vs untreated aliquot, sucrose cushion)?
Its value is “about 5 times smaller”.

What about the “original virus mass no longer pelletable (HTLV-I)” value ([12]; two hour spin at 100,000×g) of the same compound?
Its value is “more than 80%”.

And the “inactivation of Friend virus-transformed / infected cells (in words)” value [13, 16]?
Its value is “rapidly inactivated”.

And the “rate of inactivation of virus-infected cells versus cell-free virus” value ([13]; simultaneous MC 540 (15 ug/ml) and light (40 J/cm^2))?
Its value is “inactivated at about the same rate as cell-free virus preparations”.

With `O=C1OC2(c3ccc(O)cc3Oc3cc(O)ccc32)c2ccccc21` [fluorescein] as the compound, how does the “LD50 (mouse), for comparison” value [14] read?
Its value is 300 mg/kg.
